# Where two headings read alike, the source gives them in different places.
# Biological target: α5β3γ2 GABAA R (Homo sapiens, UniProt P18507+P31644)
# Assay: Binding activity on GABAA R: inhibition of [3H]Ro15-1788 binding, α5 containing receptor
# Procedure: Tissue culture and Membrane Preparation: The binding was performed on Ltk cells stably expressing GABAA R: […], α2β3γ2, α3β3γ2 and α5β3γ2 (provided by Merck Co., NJ, USA). Cells were seeded in 100 mm culture plates in DMEM/F12 medium containing 10% serum and antibiotics in 5% CO2 and allowed to grow for 1-2 days. GABAAR expression was then induced by dexamethasone as follows: 0.5 μM for 1 day for α5 containing and 2 μM for 3 days for α1, α2 and α3 containing GABAARs. After induction, cells were collected by scraping into Dulbecco's Phosphate buffered saline (DPBS, pH 7.4, Invitrogen, Carlsbad, CA, USA) and centrifuged at 150×g for 10 min. The pellet was washed twice by re-suspension and centrifugation. The cell pellets from at least 5 different preps were combined, suspended in the binding assay buffer (50 mM KH2PO4; 1 mM EDTA; 0.2 M KCl, pH 7.4) and membranes prepared by sonication (3-5 times, 30 sec) using Branson Sonifier 150 (G. Heinmann, Germany). Protein content was determined using BCA assay (Bio-Rad Labs, Reinach, Switzerland) with Bovine Serum Albumin (Sigma Aldrich, St. Louis, MO, USA) as the standard. Aliquots were prepared and stored at −20° C. for further use in binding assays.
# Ligand Binding: Saturation binding curves were obtained by incubating membranes with increasing concentrations (0.01-8 nM) of [^3H]Rol5-1788 (Flumazepil, 75-85 Ci/mmol, PerkinElmer, MA, USA), with nonspecific binding measured in the presence of 10 μM diazepam.
# All binding assays were performed for 1 h at 4° C. in assay buffer. The total assay volume was 0.5 ml containing 0.2 mg/ml protein for α5 and 0.4 mg/ml for α1, α2, and α3 containing GABAAR membranes. Incubations were terminated by filtration through GF/B filters using a 24-Cell Harvestor (Brandel, Gaithersburg, MD, USA) followed by 3 washes with ice-cold assay buffer. Filters were transferred to scintillation vials, 5 ml scintillation liquid added, vortex-mixed and kept in dark. Next day, radioactivity was obtained using a scintillation counter (Beckman Coulter, Brea, CA, USA). All assays were performed in triplicate.
# Data Analyses: Saturation and inhibition curves were obtained using GraphPad Prism software (GraphPad Software, Inc., CA, USA).
# [1] = ranges of the column heads, [3H]Ro15-1788, Ltk cell membranes
# α5β3γ2 GABAA R, sequence (P31644 32-462): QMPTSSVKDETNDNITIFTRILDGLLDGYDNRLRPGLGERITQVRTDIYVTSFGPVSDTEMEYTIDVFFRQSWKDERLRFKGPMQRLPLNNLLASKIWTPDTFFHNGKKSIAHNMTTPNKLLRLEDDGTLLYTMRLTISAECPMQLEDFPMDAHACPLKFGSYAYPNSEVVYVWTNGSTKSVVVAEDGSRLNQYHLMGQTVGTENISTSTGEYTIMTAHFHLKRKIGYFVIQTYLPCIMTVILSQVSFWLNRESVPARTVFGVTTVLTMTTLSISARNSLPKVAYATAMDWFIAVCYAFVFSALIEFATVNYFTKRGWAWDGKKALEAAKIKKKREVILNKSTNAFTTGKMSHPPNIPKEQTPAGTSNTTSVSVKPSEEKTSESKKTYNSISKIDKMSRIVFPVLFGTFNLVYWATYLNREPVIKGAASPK
# α5β3γ2 GABAA R, sequence (P28472 26-473 partner): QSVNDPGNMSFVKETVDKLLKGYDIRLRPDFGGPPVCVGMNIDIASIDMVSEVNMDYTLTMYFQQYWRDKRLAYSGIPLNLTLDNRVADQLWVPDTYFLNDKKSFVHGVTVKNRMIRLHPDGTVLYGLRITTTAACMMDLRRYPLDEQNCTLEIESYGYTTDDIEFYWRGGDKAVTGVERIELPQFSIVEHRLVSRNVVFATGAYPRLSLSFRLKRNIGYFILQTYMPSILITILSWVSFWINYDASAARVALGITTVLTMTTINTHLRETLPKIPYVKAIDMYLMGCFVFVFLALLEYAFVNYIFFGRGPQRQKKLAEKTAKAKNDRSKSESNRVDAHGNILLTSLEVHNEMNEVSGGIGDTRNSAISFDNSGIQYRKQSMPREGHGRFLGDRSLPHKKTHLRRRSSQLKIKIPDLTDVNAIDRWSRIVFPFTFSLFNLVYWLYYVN
# α5β3γ2 GABAA R, sequence (P18507 40-475): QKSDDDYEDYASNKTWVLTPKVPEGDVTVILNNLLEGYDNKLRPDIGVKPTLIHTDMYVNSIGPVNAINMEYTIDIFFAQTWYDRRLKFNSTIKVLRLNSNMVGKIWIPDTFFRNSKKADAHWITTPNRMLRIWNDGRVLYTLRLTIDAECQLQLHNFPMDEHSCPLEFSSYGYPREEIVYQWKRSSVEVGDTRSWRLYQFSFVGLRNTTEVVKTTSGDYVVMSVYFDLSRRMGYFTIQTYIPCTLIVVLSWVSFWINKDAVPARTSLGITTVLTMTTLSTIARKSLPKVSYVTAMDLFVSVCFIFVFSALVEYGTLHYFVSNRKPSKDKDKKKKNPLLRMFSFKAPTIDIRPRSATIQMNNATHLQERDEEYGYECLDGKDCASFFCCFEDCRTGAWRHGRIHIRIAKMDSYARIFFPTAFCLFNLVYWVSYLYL
Ki [1] [nM],Structure (SMILES),Ki [nM]
,CCn1cc2c(n1)-c1cc(Cl)ccc1-n1cnc(C3=N[C@@H](C(C)C)CO3)c1C2 [Compound 180],< 100
,Cn1cc2c(n1)-c1cc(Cl)ccc1-n1cnc(C3=NC4(COC4)CO3)c1C2 [Compound 182],< 100
,COc1ccc2c(c1)-c1c(cnn1C)Cc1c(-c3noc(C(C)(C)OC)n3)ncn1-2 [Compound 186],100 to 1000
,COc1ccc2c(c1)-c1n[nH]cc1Cc1c(-c3noc(C4(F)CC4)n3)ncn1-2 [Compound 191],< 100
,CCn1cc2c(n1)-c1cc(Cl)ccc1-n1cnc(-c3noc(C(C)(C)OC)n3)c1C2 [Compound 196],< 100
,CC(C)c1noc(-c2ncn3c2Cc2cn(C4CCOC4)nc2-c2cc(Cl)ccc2-3)n1 (stereo not drawn) [Compound 199],< 100
,COc1ccc2c(c1)-c1c(cnn1C)Cc1c(-c3noc(C4(OC)CC4)n3)ncn1-2 [Compound 204],< 100
,Cn1cc2c(n1)-c1cc(Cl)ccc1-n1cnc(-c3cnn(C4CCCO4)c3)c1C2 (stereo not drawn) [Compound 221],100 to 1000
,FC(F)(F)c1noc(-c2ncn3c2Cc2cn(CC4CCCO4)nc2-c2cc(Cl)ccc2-3)n1 (stereo not drawn) [Compound 227],< 100
< 100,Clc1ccc2c(c1)-c1nn(CC3CCOC3)cc1Cc1c(-c3cnn(Cc4ccccc4)c3)ncn1-2 (stereo not drawn) [Compound 229],
,CCn1cc2c(n1)-c1cc(OC)ccc1-n1cnc(-c3nc(C(C)(C)OC)no3)c1C2 [Compound 234],< 100
,COCc1noc(-c2ncn3c2Cc2cn(C)nc2-c2cc(Cl)ccc2-3)n1 [Compound 235],< 100
< 100,Cc1ccc(-c2noc(C)c2COc2ccc(C(=O)NC3CCOCC3)nn2)cn1 [Compound 238],
,CN(C)Cc1noc(-c2ncn3c2Cc2cn(C)nc2-c2cc(Cl)ccc2-3)n1 [Compound 240],< 100
,CCn1cc2c(n1)-c1cc(OC)ccc1-n1cnc(-c3nc(CN(C)C)no3)c1C2 [Compound 241],< 100
< 100,COc1ccc2c(c1)-c1c(cnn1CC1CCOC1)Cc1c(-c3nc(C(C)C)no3)ncn1-2 (stereo not drawn) [Compound 246],
> 1000,COc1ccc2c(c1)-c1nn(C)cc1Cc1c(-c3nc(C4CCOC4)co3)ncn1-2 (stereo not drawn) [Compound 262],
,COc1ccc2c(c1)-c1nn(CC3CCOC3)cc1Cc1c(-c3nc(C(F)(F)F)no3)ncn1-2 (stereo not drawn) [Compound 265],< 100
,COc1ccc2c(c1)-c1nn(C)cc1Cc1c(-c3nc(CN4CCCC4)co3)ncn1-2 [Compound 270],100 to 1000
,COc1ccc2c(c1)-c1nn(C)cc1Cc1c(-c3nc(CN4CCOCC4)co3)ncn1-2 [Compound 271],< 100
,COCCOCc1coc(-c2ncn3c2Cc2cn(C)nc2-c2cc(OC)ccc2-3)n1 [Compound 272],< 100
,COc1ccc2c(c1)-c1nn(C)cc1Cc1c(-c3nc(COC4CCOC4)co3)ncn1-2 (stereo not drawn) [Compound 273],< 100

Ki [1] [nM],Structure (SMILES),Ki [nM]
< 100,Clc1ccc2c(c1)-c1nn(C3CCOC3)cc1Cc1c(-c3cnn(Cc4ccccc4)c3)ncn1-2 (stereo not drawn) [Compound 274],
,COCCOCc1coc(-c2ncn3c2Cc2cn(C)nc2-c2cc(Cl)ccc2-3)n1 [Compound 278],< 100
,COc1ccc2c(c1)-c1nn(C)cc1Cc1c(-c3nnc(C4CCOC4)o3)ncn1-2 (stereo not drawn) [Compound 291],100 to 1000
< 100,COCc1noc(-c2ncn3c2Cc2cn(CC4COC4)nc2-c2cc(OC)ccc2-3)n1 [Compound 298],
< 100,COCc1noc(-c2ncn3c2Cc2cn(CC4CCOC4)nc2-c2cc(OC)ccc2-3)n1 (stereo not drawn) [Compound 299],
,CC(C)OCc1nc(-c2ncn3c2Cc2cn(CC4CCCO4)nc2-c2cc(Cl)ccc2-3)no1 (stereo not drawn) [Compound 307],< 100
,COCCn1cc2c(n1)-c1cc(OC)ccc1-n1cnc(-c3noc(C(C)(C)OC)n3)c1C2 [Compound 311],< 100
< 100,COc1ccc2c(c1)-c1nn(C)cc1Cc1c(-c3nc(COC4CCOC4)no3)ncn1-2 (stereo not drawn) [Compound 316],
,COc1ccc2c(c1)-c1nn(C)cc1Cc1c(-c3noc(C4(C)COC4)n3)ncn1-2 [Compound 317],< 100
,COCCn1cc2c(n1)-c1cc(OC)ccc1-n1cnc(-c3noc(C4CCOCC4)n3)c1C2 [Compound 318],< 100
,Clc1ccc2c(c1)-c1nn(CC3CCCO3)cc1Cc1c(-c3cnn(CC4CCOCC4)c3)ncn1-2 (stereo not drawn) [Compound 319],< 100
,Clc1ccc2c(c1)-c1nn(CC3CCCO3)cc1Cc1c(-c3cnn(Cc4ccccn4)c3)ncn1-2 (stereo not drawn) [Compound 320],< 100
,Clc1ccc2c(c1)-c1nn(C3CCOC3)cc1Cc1c(-c3cnn(CC4CCOCC4)c3)ncn1-2 (stereo not drawn) [Compound 321],< 100
,COC1(c2nc(-c3ncn4c3Cc3cn(CC5CCCO5)nc3-c3cc(Cl)ccc3-4)no2)CC1 (stereo not drawn) [Compound 322],< 100
,COc1ccc2c(c1)-c1nn(CC3CCCO3)cc1Cc1c(-c3noc(C4(OC)CC4)n3)ncn1-2 (stereo not drawn) [Compound 323],< 100
< 100,COc1ccc2c(c1)-c1nn(C)cc1Cc1c(-c3noc(C4CCOCC4)n3)ncn1-2 [Compound 324],
,COc1ccc2c(c1)-c1nn(C)cc1Cc1c(-c3nnc(C4COCCO4)o3)ncn1-2 (stereo not drawn) [Compound 325],< 100
,COCc1nnc(-c2ncn3c2Cc2cn(C)nc2-c2cc(OC)ccc2-3)o1 [Compound 326],< 100
,COc1ccc2c(c1)-c1nn(CCOC(F)(F)F)cc1Cc1c(-c3noc(C4CCOCC4)n3)ncn1-2 [Compound 327],< 100
,COc1ccc2c(c1)-c1nn(C)cc1Cc1c(-c3nc(CN4CCOCC4)no3)ncn1-2 [Compound 328],< 100
100 to 1000,COc1ccc2c(c1)-c1c(cnn1C)Cc1c(-c3nc(CN4CCOCC4)no3)ncn1-2 [Compound 329],
,COc1ccc2c(c1)-c1nn(CCOC(F)(F)F)cc1Cc1c(-c3noc(C4(OC)CC4)n3)ncn1-2 [Compound 330],< 100

Ki [1] [nM],Structure (SMILES),Ki [nM]
,COc1ccc2c(c1)-c1nn(CC3COC3)cc1Cc1c(-c3noc(C4(OC)CC4)n3)ncn1-2 [Compound 331],< 100
,COCC(COC)OCc1coc(-c2ncn3c2Cc2cn(C)nc2-c2cc(Cl)ccc2-3)n1 [Compound 332],< 100
,COc1ccc2c(c1)-c1nn(CCOC(C)(C)C)cc1Cc1c(-c3noc(C(C)(C)OC)n3)ncn1-2 [Compound 333],< 100
,COc1ccc2c(c1)-c1nn(C)cc1Cc1c(-c3nnc(COCC(F)(F)F)o3)ncn1-2 [Compound 334],< 100
,COc1ccc2c(c1)-c1nn(C)cc1Cc1c(-c3nc(C(C)(C)OC)no3)ncn1-2 [Compound 335],< 100
,COc1cccc(Cn2cc(-c3ncn4c3Cc3cn(C)nc3-c3cc(Cl)ccc3-4)cn2)n1 [Compound 336],< 100
,COc1cccc(Cn2cc(-c3ncn4c3Cc3cn(CC5CCCO5)nc3-c3cc(Cl)ccc3-4)cn2)n1 (stereo not drawn) [Compound 337],< 100
,COc1cccc(Cn2cc(-c3ncn4c3Cc3cn(C5CCOC5)nc3-c3cc(Cl)ccc3-4)cn2)n1 (stereo not drawn) [Compound 338],< 100
,COCCn1cc2c(n1)-c1cc(OC)ccc1-n1cnc(-c3noc(C4(OC)CC4)n3)c1C2 [Compound 339],< 100
< 100,CCn1cc2c(n1)-c1cc(OC)ccc1-n1cnc(-c3noc(C4(OC)CC4)n3)c1C2 [Compound 340],
,CCOC(C)(C)c1nc(-c2ncn3c2Cc2cn(C)nc2-c2cc(OC)ccc2-3)no1 [Compound 341],< 100
< 100,COCCc1nc(-c2ncn3c2Cc2cn(C)nc2-c2cc(OC)ccc2-3)no1 [Compound 342],
,COc1ccc2c(c1)-c1nn(CCOC(F)(F)F)cc1Cc1c(-c3noc(C(C)(C)OC)n3)ncn1-2 [Compound 343],< 100
,COc1ccc2c(c1)-c1nn(C)cc1Cc1c(-c3noc(CC(C)(C)OC)n3)ncn1-2 [Compound 344],100 to 1000
,Cn1cc2c(n1)-c1cc(Cl)ccc1-n1cnc(-c3nc(CN4CCCC4)co3)c1C2 [Compound 345],< 100
< 100,Cn1cc2c(n1)-c1cc(Cl)ccc1-n1cnc(-c3nc(COC4CCOCC4)co3)c1C2 [Compound 346],
,COc1ccc2c(c1)-c1nn(C)cc1Cc1c(-c3noc(CN4CCCC4)n3)ncn1-2 [Compound 347],< 100
,COc1ccc2c(c1)-c1nn(C)cc1Cc1c(-c3noc(CN4CCOCC4)n3)ncn1-2 [Compound 348],< 100
,CCn1cc2c(n1)-c1cc(Cl)ccc1-n1cnc(-c3noc(CN(C)C)n3)c1C2 [Compound 349],< 100
,CCn1cc2c(n1)-c1cc(Cl)ccc1-n1cnc(-c3noc(CN4CCCC4)n3)c1C2 [Compound 350],< 100
,COCc1noc(-c2ncn3c2Cc2cn(CC4CCOC4)nc2-c2cc(Cl)ccc2-3)n1 (stereo not drawn) [Compound 351],< 100
,COc1ccc2c(c1)-c1nn(C)cc1Cc1c(-c3nc(C4(C)CCOCC4)no3)ncn1-2 [Compound 352],< 100
